The nature of data set [1]: Intrinsic clearance assay (human liver microsomes). The settings on record: both sexes; 1 μM compound, human liver microsomes 0.5 mg/mL protein, 37° C., 1 mM NADPH; read-out: Human Intrinsic CL (converted). It is filed as in vitro ADME. On the procedure: Intrinsic Clearance Assay
The disappearance of the test compound was monitored by LC/MS at […] The slope of decline in compound concentration was used to calculate the human intrinsic clearance by employing standard methods reported in the literature.
(In general: Microsomes from liver hold many membrane-bound enzymes, among them those of drug oxidation.)

For data set [2], the target named is T1, human Jak2 (a.a. 828-1132) catalytic domain (Homo sapiens, UniProt O60674).
T1 construct: Jak2 (a.a. 828-1132); His tag (N); made in house; host or cells: insect cells (baculovirus)
T1 sequence (O60674 828-1132): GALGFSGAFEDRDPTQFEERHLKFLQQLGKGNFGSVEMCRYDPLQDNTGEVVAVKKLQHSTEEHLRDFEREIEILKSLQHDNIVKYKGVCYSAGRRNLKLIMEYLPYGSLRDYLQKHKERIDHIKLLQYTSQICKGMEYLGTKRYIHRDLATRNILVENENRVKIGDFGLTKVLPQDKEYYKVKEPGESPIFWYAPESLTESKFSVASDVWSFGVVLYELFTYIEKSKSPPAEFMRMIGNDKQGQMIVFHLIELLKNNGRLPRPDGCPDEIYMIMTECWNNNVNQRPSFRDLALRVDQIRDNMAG
The data set is described as follows: In vitro JAK kinase assay (HTRF), JAK2. In kind it is biochemical. To be noted: 30 μM ATP; ranges = lowest and highest values of the stereoisomers tested; read-out: JAK 2 IC50.

Data set [3] addresses human Jak3 (a.a. 781-1124) catalytic domain (Homo sapiens, UniProt P52333). The data set is described as follows: In vitro JAK kinase assay (HTRF), JAK3. On the technique in general: In TR-FRET formats the signal depends on donor and acceptor labels being close together.
In data set [4] the target is human JAK1 (a.a. 837-1142) catalytic domain (Homo sapiens, UniProt P23458). The data set is described as follows: In vitro JAK kinase assay (HTRF), JAK1.
human JAK1 (a.a. 837-1142) catalytic domain, sequence (P23458 849-1154): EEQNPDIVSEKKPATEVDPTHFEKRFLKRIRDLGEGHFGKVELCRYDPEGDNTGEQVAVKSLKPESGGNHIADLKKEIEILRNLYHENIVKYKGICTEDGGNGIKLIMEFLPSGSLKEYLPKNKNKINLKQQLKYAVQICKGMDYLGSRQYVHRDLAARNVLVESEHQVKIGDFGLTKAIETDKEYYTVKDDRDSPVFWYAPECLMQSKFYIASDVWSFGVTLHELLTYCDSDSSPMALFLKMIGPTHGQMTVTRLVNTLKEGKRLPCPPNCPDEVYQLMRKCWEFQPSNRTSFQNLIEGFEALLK

As a reminder, the IC50 is the midpoint of a concentration-inhibition curve.

human Jak3 (a.a. 781-1124) catalytic domain, sequence (P52333 781-1124): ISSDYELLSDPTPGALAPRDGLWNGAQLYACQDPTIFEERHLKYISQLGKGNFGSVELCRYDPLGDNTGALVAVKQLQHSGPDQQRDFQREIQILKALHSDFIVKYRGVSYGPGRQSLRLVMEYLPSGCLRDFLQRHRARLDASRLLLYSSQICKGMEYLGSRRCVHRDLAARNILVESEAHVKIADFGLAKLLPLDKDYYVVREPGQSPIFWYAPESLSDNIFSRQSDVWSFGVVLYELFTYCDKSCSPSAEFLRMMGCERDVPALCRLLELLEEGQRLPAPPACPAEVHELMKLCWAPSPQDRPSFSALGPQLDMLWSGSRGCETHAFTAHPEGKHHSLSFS

As to `N#CCC(C1CCC(=O)C1)n1cc(-c2ncnc3[nH]ccc23)cn1` (stereo not shown) [Metabolite 3, 3-(4-(7H-pyrrolo[2,3-d]pyrimidin-4-yl)-1H-pyrazol-1-yl)-3-(3-oxycyclopentyl)propanenitrile], the CLint scaled at 1 μM in data set [1] was less than 0.57 L/h/kg. In addition, the IC50 in data set [2] is 2.1 to 5.9 nM; in data set [3], 11 to 41 nM; in data set [4], 2.7 to 12 nM.

With `N#CC[C@H](C1CCCC1)n1cc(-c2ncnc3[nH]ccc23)cn1` [Compound 1, (R)-3-(4-(7H-pyrrolo[2,3-d]pyrimidin-4-yl)-1H-pyrazol-1-yl)-3-cyclopentylpropanenitrile, reference compound], in data set [1], the CLint scaled at 1 μM is 0.68 L/h/kg.

`N#CCC(C1CCCC1O)n1cc(-c2ncnc3[nH]ccc23)cn1` (stereo not shown) [Metabolite 2, 3-(4-(7H-pyrrolo[2,3-d]pyrimidin-4-yl)-1H-pyrazol-1-yl)-3-(2-hydroxycyclopentyl)propanenitrile]: the CLint scaled at 1 μM in data set [1] is less than 0.5 L/h/kg. The values for the IC50 in data set [2], in data set [3] and in data set [4] were 2 to 2.8 nM, 17 to 30 nM and 3 to 15 nM, respectively.

Consider `N#CCC(C1CCC(O)C1)n1cc(-c2ncnc3[nH]ccc23)cn1` (stereo not shown) [Metabolite 1, 3-(4-(7H-pyrrolo[2,3-d]pyrimidin-4-yl)-1H-pyrazol-1-yl)-3-(3-hydroxycyclopentyl)propanenitrile], for which the CLint scaled at 1 μM in data set [1] was less than 0.5 L/h/kg. Also, the results for the IC50 in data set [2], in data set [3] and in data set [4] were 0.7 to 2.5 nM, 8.3 to 45 nM and 2.5 to 12 nM, respectively.

The record behind these values is patent publication US10463667B2 (Incyte Corporation, priority 2007, dated 2019).
